Tests used:
[1] = metabolites are not fluorescent; cited from earlier work
[2] = disappearance of ICG from blood after high dose intravenous injection (calibration sequence); format: in vivo, New Zealand White rabbits; settings: rabbit, 1 mg ICG intravenously, metabolized by the liver
Text: Experiments have been performed in New Zealand White rabbits (2.8-3.5 Kg) anesthetized with halothane and artificially ventilated with an oxygen-enriched gas mixture (FiO2˜0.4) to achieve a SaO2 above 99% and an end-tidal CO2 between 28 and 32 mm Hg (FIG. 4). The left femoral artery was cannulated for measurement of the arterial blood pressure throughout the procedure. A small catheter was positioned in the left brachial vein to inject the indicator, ICG. Body temperature was maintained with a heat lamp.
Calibration of the transcutaneous fluorescence intensity measured at the level of the animals' ear as a function of ICG concentration in blood was performed as follows. […]
As the liver metabolizes ICG, the blood ICG concentration decreases back to 0 in about 20 minutes. […] The fluorescence intensity of the blood in the cuvette was converted to a measurement of concentration using the known standard curve of fluorescence intensity versus ICG concentration established for the cuvette. ICG fluorescence was measured at the level of the ear at the exact time of the blood sample withdrawal. […]
For the range of concentrations used in these studies, ICG concentration and transcutaneous fluorescence were linearly related. The calibration line passes through the origin of the axes since there is no measured fluorescence when the ICG blood concentration is 0.

blood proteins = settings: stated as typical; cited from earlier work

CC1(C)C(/C=C/C=C/C=C/C=C2\N(CCCCS(=O)(=O)O)c3ccc4ccccc4c3C2(C)C)=[N+](CCCCS(=O)(=O)[O-])c2ccc3ccccc3c21 [ICG, indocyanine green]
stability in aqueous solution [1]: breaks down quickly
time for blood ICG concentration to decrease back to 0 [2]: about 20 minutes
fraction of ICG injected in the bloodstream that binds to blood proteins (blood proteins): more than 95%

— patent publication US8249697B2, “Cardiac output monitor with compensation for tissue perfusion” (Alfred E. Mann Institute for Biomedical Engineering at the …, priority 2008, dated 2012)
